Experimental data published in publication PMC12111648, “New Dimethoxyaryl-Sesquiterpene Derivatives with Cytotoxic Activity Against MCF-7 Breast Cancer Cells: From Synthesis to Topoisomerase I/II Inhibition and Cell Death Mechanism Studies” (International Journal of Molecular Sciences, 2025).

How the values were obtained:
Format in all cases: cell-based, human
MCF-10 cells = assay: MTT cytotoxicity assay on non-tumoral MCF-10 cells; conditions: IC50 ± SD, three experiments in triplicate
Method: (§1) In this study, we wondered whether semi-synthetic compounds have potential antitumoral properties against BC. Therefore, we were interested in investigating the effect of the compounds on the MCF-7 cell line. Firstly, we studied the effect on cell viability using a colorimetric MTT assay, which was performed to quantify the cytotoxic activity; each compound was evaluated at different concentrations (500−100−20−4−0.8−0.16−0.032−0 µM). Daunorubicin was also used as a positive control for comparison with a reference drug. […] Although the MCF-10 cell line provides a useful selectivity model, it may not fully represent the varying sensitivities of different normal cell types within a multicellular organism. The SI value indicates the ratio of toxicity in mammalian host cells to that in a tumoral cell. The data obtained in response to different concentrations of compounds were used to calculate the IC50 and corresponding SI values, as shown in Table 1.
(§2) The American Type Culture Collection (Rockville, MD, USA) supplied the following experimental cell lines: MCF-7, a human breast cancer cell line, and MCF-10A, a human epithelial breast cell line (ATCC N° CRL-10317). Both cell lines were grown in DMEM-F12 medium containing 10% FCS, 100 U/mL penicillin, 100 μg/mL streptomycin, and 1 mM glutamine. The cells were seeded at a concentration of 100 μL per well at a plating density of 3 × 10^3 cells/well and incubated for 24 h at 37 °C under 5% humidified CO2 to enable attachment. The cells were then treated with varying concentrations of synthesized compounds for […] under the same conditions. The compound stock solution was prepared in DMSO, and the final concentration of DMSO was kept at 0.1%. Control cultures were treated with only 1% ethanol.
(§3) Cells from the MCF-7 and MCF-10 lines were seeded into 96-well plates at a density of 1 × 10^4 per well. After 24 h, the compounds were added at increasing concentrations (500–100–20-4–0.8–0.16–0.032–0 µM), and the cells were incubated at 37 °C in a humidified 5% CO2/95% air mixture for 48 h. Following incubation, the cells were washed twice with PBS, and 100 μL of 0.5 mg/mL MTT solution was added to each well. After 2 h of incubation, the MTT solution was removed, and the formazan crystals were dissolved in 50 μL of DMSO per well. Absorbance was then measured at 570 nm using a microplate ELISA reader. IC50 values, determined from three independent experiments conducted in triplicate, were calculated using SigmaPlot® software (version 11.0). The selectivity index (SI) of each compound in each cell line was determined by calculating the ratio of the IC50 values for MCF-10 and cancer cell lines. Compounds were considered selective if SI values were equal to or greater than 3 [46].

MCF-7 cells [1] = assay: MTT cytotoxicity assay on MCF-7 cells; conditions: for IC50: MTT, 48 h incubation, IC50 ± SD, three experiments in triplicate; for Selectivity Index (SI): SI = IC50 on MCF-10 cells/IC50 on MCF-7 cells
Method: as §1, §2, §3

MCF-7 cells [2] = assay: Intracellular ROS generation (DCFH2-DA, flow cytometry); conditions: MCF-7, compounds at respective IC50, 24 h, versus control
Method: An increase in intracellular ROS may be one of the factors that contribute to the cytotoxicity of certain compounds in cancer cell lines. In fact, ROS and mitochondrial damage are often associated with the induction of cell death. […] DCF fluorescence was then measured by flow cytometry. The difference in the percentage of DCF-positive cells between treated and control cells was used to indicate an increase in intracellular ROS, as shown in Figure 4.
Reactive oxygen species (ROS) production was measured using flow cytometry. Cells were treated with compounds (each with respective IC50 values) for 24 h, with untreated cells serving as the negative control and cells treated with 1 µM daunorubicin as the positive control. Following the treatment, intracellular ROS levels were visualized after incubation with 2′,7′-dichlorodihydro-fluorescein diacetate (DCFH2-DA) at a final concentration of 10 μM for the last 30 min of the treatment period. After incubation, the cells were washed with PBS, trypsinized, and centrifuged, and the resulting pellet was resuspended in PBS and immediately examined by flow cytometry.
Figure 4 The effect of the compound’s treatment on intracellular ROS generation. Cells were treated with compounds (respective IC50 values for each compound for 24 h), and intracellular ROS levels were determined in the human cancer cell line MCF-7 by flow cytometry using dichloro-fluorescein diacetate (DCFH2-DA). * p < 0.05 versus control cells (Ctrl). The data represent the means ± S.D. of at least three experiments with triplicate samples.

[3] = tested on: caspases-3/7 in MCF-7 cells; assay: Caspase-Glo 3/7 assay; conditions: MCF-7, 50 μM, 24 h, versus control
Method: Since ROS levels were increased in the MCF-7 cancer cell line in response to the compounds, it is important to determine whether this effect is associated with the onset of apoptotic cell death. […] Cells were treated with the selected compounds at 50 μM for 24 h, incubated in situ with the Caspase-Glo 3/7 marker assay, and then analyzed in a luminometer.
The activity of caspase 3/7 in MCF-7 cells treated with the compounds was determined using a Caspase-Glo-3/7 Assay kit from Promega (UK). This assay is a homogenous and luminescent method that measures the activity of caspase-3 and -7, which are essential for apoptosis. MCF-7 cells (1 × 10^4 cells per well) were seeded in a 96-well plate and incubated overnight. The cells were then treated for 24 h with the compounds (50 µM) and a blank as a control. After treatment, the Caspase-Glo® 3/7 reagent was prepared according to the manufacturer’s instructions. Specifically, 100 μL of the reagent was added to 100 μL of culture medium containing the treated cells in each well, and the mixture was incubated for 1 h at room temperature in the dark. Luminescence was then measured using a luminometer (Berthold Sirius Single Tube Luminometer). The fold change in caspase activity was calculated by expressing the average luminescence of each treatment as a fold change with respect to the average luminescence of the negative control.
Figure 6 The effect of the compounds on caspases-3/7 activity in cells from the human breast cancer cell line MCF-7. Caspases-3/7 activity was determined in MCF-7 cells following treatment with the compounds (50 μM) for 24 h. The data are reported as the ratio of activity in treated cells vs. the control (1% ethanol), which were arbitrarily assigned a unitary value. * p < 0.05 versus control cells (Ctrl). The data are reported as the mean values ± S.D. of three different experiments with samples in triplicate.

MCF-7 cells [4] = assay: Mitochondrial membrane potential (rhodamine 123, flow cytometry); conditions: MCF-7, compounds at respective IC50, 24 h
Method: To determine whether the toxic effects of selected sesquiterpenes (10c, 11c, 12c, 13c, and 14c) are due to the production of ROS and subsequent apoptosis, the mitochondrial membrane potential was measured. With this aim, a protocol using rhodamine 123 staining and flow cytometry was established to study the effect of the selected compounds [40]. The accumulation of rhodamine 123 in mitochondria is associated with the maintenance of the electrochemical gradient in mitochondria. Daunorubicin was used as a positive control (C+). The results are presented as the percentage of cells with increased mitochondrial membrane permeability.
Rhodamine 123 (Rho123), a positively charged dye that reacts to voltage changes and enters the mitochondria, was utilized to detect modifications in the mitochondrial membrane potential. The cells were exposed to specific compounds (IC50 values for each compound) for 24 h. Control cells that had not been treated were used as negative control, while cells treated with daunorubicin at a concentration of 1 µM served as the positive control. Following this, the cells were incubated with Rho123 (at a concentration of 1 µM) in darkness for an hour at 37 °C. Afterward, the medium was taken out, and the cells were washed with PBS. The cells were then dissociated using trypsin and collected through centrifugation for 10 min at 1500×g. The supernatant was thrown away, and the cell pellets were resuspended in PBS and analyzed using flow cytometry with the FL1 filter. The results are shown as the percentage of Rho123-stained cells.
Figure 5 The effect of the compound’s treatment on mitochondrial membrane potential. […] The data represent the means ± S.D. of at least three experiments with triplicate samples.

[5] = Homo sapiens, MCF10, 48 h incubation

## COc1ccc(C(=O)[C@H]2C(C)=CCC3C(C)(C)CCC[C@@]32C)c(OC)c1 (stereo partly drawn) [Compound 12a, (2,4-Dimethoxyphenyl)((1S,8aS)-2,5,5,8a-tetramethyl-1,4,4a,5,6,7,8,8a-octahydronaphthalen-1-yl)methanone]
MCF-10 cells; [5]
  IC50: 45.4 ± 4.8 µM
MCF-7 cells [1]; Homo sapiens, MCF7
  IC50: 56.2 ± 7.3 µM
MCF-7 cells [1]
  Selectivity Index (SI): 0.8

## COc1cc(OC)c2c(c1)[C@]1(C)CCC3C(C)(C)CCC[C@]3(C)C1=C2 (stereo partly drawn) [Compound 14a, (6aR,11bS)-8,10-Dimethoxy-4,4,6a,11b-tetramethyl-2,3,4,4a,5,6,6a,11b-octahydro-1H-benzo[a]fluorene]
MCF-10 cells; [5]
  IC50: 52.4 ± 3.5 µM
MCF-7 cells [1]; Homo sapiens, MCF7
  IC50: 8.4 ± 1.8 µM
MCF-7 cells [1]
  Selectivity Index (SI): 6.3

## COc1cc(OC)cc([C@@H](O)[C@H]2C(C)=CCC3C(C)(C)CCC[C@@]32C)c1 (stereo partly drawn) [Compound 10d, (1S)-(3,5-Dimethoxyphenyl)((1S,8aS)-2,5,5,8a-tetramethyl-1,4,4a,5,6,7,8,8a-octahydronaphthalen-1-yl)methanol]
MCF-10 cells; [5]
  IC50: 12.3 ± 3.1 µM
MCF-7 cells [1]; Homo sapiens, MCF7
  IC50: 126 ± 11.5 µM
MCF-7 cells [1]
  Selectivity Index (SI): 0.1

## COc1ccc(OC)c(C(=O)[C@H]2C(C)=CCC3C(C)(C)CCC[C@@]32C)c1 (stereo partly drawn) [Compound 12b, (2,5-Dimethoxyphenyl)((1S,8aS)-2,5,5,8a-tetramethyl-1,4,4a,5,6,7,8,8a-octahydronaphthalen-1-yl)methanone]
MCF-10 cells; [5]
  IC50: 72.7 ± 4.3 µM
MCF-7 cells [1]; Homo sapiens, MCF7
  IC50: 88.1 ± 19.9 µM
MCF-7 cells [1]
  Selectivity Index (SI): 0.8

## COc1ccc([C@@H](O)[C@H]2C(C)=CCC3C(C)(C)CCC[C@@]32C)cc1OC (stereo partly drawn) [Compound 10c, (1S)-(3,4-Dimethoxyphenyl)((1S,8aS)-2,5,5,8a-tetramethyl-1,4,4a,5,6,7,8,8a-octahydronaphthalen-1-yl) methanol]
MCF-10 cells; [5]
  IC50: 248 ± 42.3 µM
MCF-7 cells [1]; Homo sapiens, MCF7
  IC50: 25.1 ± 2.2 µM
MCF-7 cells [1]
  Selectivity Index (SI): 9.9
MCF-7 cells [2]
  intracellular ROS levels (DCF fluorescence): significantly increased
[3]
  caspases-3/7 activity: considerably enhanced
MCF-7 cells [4]
  mitochondrial membrane permeability: did not increase

## (4aS,5S)-5-(3,5-Dimethoxybenzyl)-1,1,4a,6-tetramethyl-1,2,3,4,4a,5,8,8a-octahydronaphthalene [Compound 11d]
MCF-10 cells; 48 h incubation
  IC50: 165 ± 12.5 µM
MCF-7 cells [1]
  IC50: 187 ± 9 µM

## COc1ccc([C@@H](O)[C@H]2C(C)=CCC3C(C)(C)CCC[C@@]32C)c(OC)c1 (stereo partly drawn) [Compound 10a, (1S)-(2,4-Dimethoxyphenyl)((1S,8aS)-2,5,5,8a-tetramethyl-1,4,4a,5,6,7,8,8a-octahydronaphthalen-1-yl) methanol]
MCF-10 cells; [5]
  IC50: 53.2 ± 10 µM
MCF-7 cells [1]; Homo sapiens, MCF7
  IC50: 74.2 ± 7 µM
MCF-7 cells [1]
  Selectivity Index (SI): 0.7

## COc1ccc(C[C@H]2C(C)=CCC3C(C)(C)CCC[C@@]32C)c(OC)c1 (stereo partly drawn) [Compound 11a, (4aS,5S)-5-(2,4-Dimethoxybenzyl)-1,1,4a,6-tetramethyl-1,2,3,4,4a,5,8,8a-octahydronaphthalene]
MCF-10 cells; [5]
  IC50: 76.7 ± 3 µM
MCF-7 cells [1]; Homo sapiens, MCF7
  IC50: 75.2 ± 11.3 µM
MCF-7 cells [1]
  Selectivity Index (SI): 1.0

## COc1ccc(OC)c([C@@H](O)[C@H]2C(C)=CCC3C(C)(C)CCC[C@@]32C)c1 (stereo partly drawn) [Compound 10b, (1S)-(2,5-Dimethoxyphenyl)((1S,8aS)-2,5,5,8a-tetramethyl-1,4,4a,5,6,7,8,8a-octahydronaphthalen-1-yl)methanol]
MCF-10 cells; [5]
  IC50: 10.1 ± 3 µM
MCF-7 cells [1]; Homo sapiens, MCF7
  IC50: 131 ± 26.6 µM
MCF-7 cells [1]
  Selectivity Index (SI): 0.1

## COc1cc2c(c(OC)c1)[C@]1(C)CCC3C(C)(C)CCC[C@]3(C)C1=C2 (stereo partly drawn) [Compound 14d, (6aR,11bS)-7,9-Dimethoxy-4,4,6a,11b-tetramethyl-2,3,4,4a,5,6,6a,11b-octahydro-1H-benzo[a]fluorene]
MCF-10 cells; [5]
  IC50: 31.4 ± 4.6 µM
MCF-7 cells [1]; Homo sapiens, MCF7
  IC50: 120 ± 29.8 µM
MCF-7 cells [1]
  Selectivity Index (SI): 0.3

## COc1cc(OC)cc(C(=O)[C@H]2C(C)=CCC3C(C)(C)CCC[C@@]32C)c1 (stereo partly drawn) [Compound 12d, (3,5-Dimethoxyphenyl)((1S,8aS)-2,5,5,8a-tetramethyl-1,4,4a,5,6,7,8,8a-octahydronaphthalen-1-yl)methanone]
MCF-10 cells; [5]
  IC50: 107 ± 15.4 µM
MCF-7 cells [1]; Homo sapiens, MCF7
  IC50: 112 ± 25.4 µM
MCF-7 cells [1]
  Selectivity Index (SI): 1.0

## COc1ccc(/C=C2\C(C)=CCC3C(C)(C)CCC[C@]23C)c(OC)c1 (stereo partly drawn) [Compound 13a, (4aS)-5-((E)-2,4-Dimethoxybenzylidene)-1,1,4a,6-tetramethyl-1,2,3,4,4a,5,8,8a-octahydronaphthalene]
MCF-10 cells; [5]
  IC50: 70.9 ± 15.1 µM
MCF-7 cells [1]; Homo sapiens, MCF7
  IC50: 48.9 ± 8 µM
MCF-7 cells [1]
  Selectivity Index (SI): 1.4

## COc1ccc(OC)c(C[C@H]2C(C)=CCC3C(C)(C)CCC[C@@]32C)c1 (stereo partly drawn) [Compound 11b, (4aS,5S)-5-(2,5-Dimethoxybenzyl)-1,1,4a,6-tetramethyl-1,2,3,4,4a,5,8,8a-octahydronaphthalene]
MCF-10 cells; [5]
  IC50: 54.4 ± 3.5 µM
MCF-7 cells [1]; Homo sapiens, MCF7
  IC50: 133 ± 14.9 µM
MCF-7 cells [1]
  Selectivity Index (SI): 0.4
